This is an account of results in US8022088B2, “Substituted bicyclic and tricyclic thrombin receptor antagonists” (Schering Corporation, priority 2006, dated 2011).

As a reminder, the IC50 is the point on the concentration scale where inhibition reaches its midpoint. A word on the Ki: it is a measure of affinity in units of concentration, obtained from inhibition or displacement.

The experiment addresses T1, thrombin receptor (Homo sapiens, UniProt P25116).
T1 construct: tissue North Jersey Blood Center (East Orange, N.J.); host or cells: platelet membranes prepared from platelet concentrates
T1 sequence (P25116 22-425): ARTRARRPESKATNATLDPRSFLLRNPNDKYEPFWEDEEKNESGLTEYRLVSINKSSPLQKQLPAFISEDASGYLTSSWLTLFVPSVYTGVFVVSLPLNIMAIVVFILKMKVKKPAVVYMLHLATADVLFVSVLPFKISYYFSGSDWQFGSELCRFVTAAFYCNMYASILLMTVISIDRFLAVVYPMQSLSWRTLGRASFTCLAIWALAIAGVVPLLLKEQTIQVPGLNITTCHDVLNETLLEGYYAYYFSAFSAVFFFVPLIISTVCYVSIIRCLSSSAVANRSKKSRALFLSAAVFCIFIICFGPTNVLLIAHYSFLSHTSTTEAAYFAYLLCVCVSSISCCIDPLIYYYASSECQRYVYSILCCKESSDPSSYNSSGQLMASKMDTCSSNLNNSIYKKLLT
In words: High throughput thrombin receptor radioligand binding assay ([3H]haTRAP, platelet membranes). The settings on record: [3H]haTRAP binding to platelet membranes. On the procedure:
A(pF-F)R(ChA)(hR)(I2—Y)—NH2 (1.03 mg) and 10% Pd/C (5.07 mg) were suspended in DMF (250 μl) and diisopropylethylamine (10 μl). The vessel was attached to the tritium line, frozen in liquid nitrogen and evacuated. Tritium gas (342 mCi) was then added to the flask, which was stirred at room temperature for 2 hours. At the completion of the reaction, the excess tritium was removed and the reacted peptide solution was diluted with DMF (0.5 ml) and filtered to remove the catalyst. The collected DMF solution of the crude peptide was diluted with water and freeze dried to remove the labile tritium. The solid peptide was redissolved in water and the freeze drying process repeated. The tritiated peptide ([^3H]haTRAP) was dissolved in 0.5 ml of 0.1% aqueous TFA and purified by HPLC using the following conditions: column, Vydac™ C18, 25 cm×9.4 mm I.D.; mobile phase, (A) 0.1% TFA in water, (B) 0.1% TFA in CH3CN; gradient, (A/B) from 100/0 to 40/60 over 30 min; flow rate, 5 ml/min; detection, UV at 215 nm. The radiochemical purity of [^3H]haTRAP was 99% as analyzed by HPLC. A batch of 14.9 mCi at a specific activity of 18.4 Ci/mmol was obtained.
Platelet membranes were prepared using a modification of the method of Natarajan et al. (Natarajan et al, Int. J. Peptide Protein Res. 45:145-151 (1995)) from 20 units of platelet concentrates obtained from the North Jersey Blood Center (East Orange, N.J.) within 48 hours of collection. All steps were carried out at 4° C. under approved biohazard safety conditions. Platelets were centrifuged at 100×g for 20 minutes at 4° C. to remove red cells. The supernatants were decanted and centrifuged at 3000×g for 15 minutes to pellet platelets. Platelets were re-suspended in 10 mM Tris-HCl, pH 7.5, 150 mM NaCl, 5 mM EDTA, to a total volume of 200 ml and centrifuged at 4400×g for 10 minutes. This step was repeated two additional times. Platelets were re-suspended in 5 mM Tris-HCl, pH 7.5, 5 mM EDITA to a final volume of approximately 30 ml and were homogenized with 20 strokes in a Dounce™ homogenizer. Membranes were pelleted at 41,000×g, re-suspended in 40-50 ml 20 mM Tris-HCl, pH 7.5, 1 mM EDTA, 0.1 mM dithiothreitol, and 10 ml aliquots were frozen in liquid N2 and stored at −80° C. To complete membrane preparation, aliquots were thawed, pooled, and homogenized with 5 strokes of a Dounce homogenizer. Membranes were pelleted and washed 3 times in 10 mM triethanolamine-HCl, pH 7.4, 5 mM EDTA, and re-suspended in 20-25 ml 50 mM Tris-HCl, pH 7.5, 10 mM MgCl2, 1 mM EGTA, and 1% DMSO. Aliquots of membranes were frozen in liquid N2 and stored at −80° C. Membranes were stable for at least 3 months. 20 units of platelet concentrates typically yielded 250 mg of membrane protein. Protein concentration was determined by a Lowry assay (Lowry et al., J. Biol. Chem., 193:265-275 (1951)).
Thrombin receptor antagonists were screened using a modification of the thrombin receptor radioligand binding assay of Ahn et al. (Ahn et al., Mol. Pharmacol, 51:350-356 (1997)). The assay was performed in 96 well Nunc plates (Cat. No. 269620) at a final assay volume of 200 μl. Platelet membranes and [^3H]haTRAP were diluted to 0.4 mg/ml and 22.2 nM, respectively, in binding buffer (50 mM Tris-HCl, pH 7.5, 10 mM MgCl2, 1 mM EGTA, 0.1% BSA). Stock solutions (10 mM in 100% DMSO) of test compounds were further diluted in 100% DMSO. Unless otherwise indicated, 10 μl of diluted compound solutions and 90 μl of radioligand (a final concentration of 10 nM in 5% DMSO) were added to each well, and the reaction was started by the addition of 100 μl of membranes (40 μg protein/well). […] Compounds were tested at three concentrations (0.1, 1 and 10 μM). The plates were covered and vortex-mixed gently on a Lab-Line™ Titer Plate Shaker for 1 hour at room temperature. Packard UniFilter™ GF/C filter plates were soaked for at least 1 hour in 0.1% polyethyleneimine. […]

For `C[C@@H]1[C@@H](C)[C@H](/C=C/c2ccc(-c3ccccc3C#N)cn2)C[C@@H]2OC(=O)C[C@@H]12` [Compound 1], the IC50 worked out at 45 nM. `C[C@@H]1[C@@H](C)[C@H](/C=C/c2ccc(-c3ccccc3C#N)cn2)C[C@H]2OC(=O)C[C@@H]12` [Compound 2] had an IC50 of 16 nM and a Ki of 11 nM.

Turning to `O=C1C[C@H]2[C@@H]3CCCC[C@H]3[C@H](/C=C/c3ccc(-c4cccc(F)c4)cn3)C[C@H]2O1` [Compound 3], the IC50 was 4.8 nM and the Ki was 3.1 nM.

Turning to `O=C1C[C@H]2[C@@H]3CCCC[C@H]3[C@H](/C=C/c3ccc(-c4cc(Cl)ccc4Cl)cn3)C[C@H]2O1` [Compound 4], the IC50 is 20 nM and the affinity corresponds to a Ki of 13 nM. In the case of `N#Cc1cccc(-c2ccc(/C=C/[C@@H]3C[C@H]4OC(=O)C[C@H]4[C@@H]4CCCC[C@H]43)nc2)c1` [Compound 5], the IC50 came out at 6.7 nM and affinity was put at a Ki of 4.3 nM.
